In patent US12201620B2, “Compositions and methods for treating chemotherapy resistant cancer” (The Brigham And Women's Hospital, Inc., priority 2016, dated 2025):
“Also recorded” adds a separate entry of the source.

How the values were obtained:
[1] = system: Molm13 PPM1D-mutant pooled cells and control pooled cells; assay: In vitro competition experiment, PPM1D-mutant cells mixed with control cells; format: cell-based, human; conditions: 1:9 ratio, 100 nM cytarabine plus 100 nM GSK2830371
Experimental: FIG. 2B provides immunoblots of whole cell lysates from Molm13 control cells (control), PPM1D-mutant pooled clones and PPM1D frame-shift (fs) mutant single cell clones probed with anti-PPM1D and anti-Actin. […] FIG. 2D is a plot depicting viability assays in Molm13 PPM1D-mutant or control single cells clones that were treated with increasing concentrations of cyclophosphamide for 72 hours. FIG. 2E is a plot depicting viability assays in Molm13 PPM1D-mutant or control single cells clones that were treated with increasing concentrations of cisplatin for 72 hours. […] FIG. […] FIG. […] PPM1D and control sgRNAs were identified through their fluorophores.
(§1) 72 hour cell viability analysis in Molm13 PPM1D-mutant and control single cell clones after exposure to increasing doses of GSK2830371. FIG. 10F is a graph showing percent Annexin V positive cells in cells treated with PPM1D inhibitor or vehicle. Annexin V staining and flow cytometric analysis of Molm13 PPM1D-mutant and control single cell clones exposed to 3 μM of GSK2830371. *=p<0.05, **=p<0.01, ***=p<0.001
(§2) To study the sensitivity of PPM1D truncating mutations to chemotherapy exposure, frame-shift mutations were introduced in the PPM1D gene in Molm13 AML cells, which are TP53 wild-type, using CRISPR-Cas9.

[2] = system: Molm13 PPM1D-mutant cells; assay: Quantitative phosphoproteomic analysis (KEGG P53 pathway phosphosites); format: cell-based, human; conditions: 400 nM AraC + 1 μM GSK2830371, 4 hours
Experimental: as §1
To explore the spectrum of PPM1D targets in hematopoietic cells, a quantitative phosphoproteomic analysis was performed in PPM1D wild-type and mutant cells at baseline and in response to chemotherapy. […] In addition, CDKN1A (p21) was identified as a new DNA damage response target of PPM1D. Based on the peptides with altered phosphorylation in PPM1D-mutant cells, a consensus sequence was identified for the serine-threonine phosphatase activity of PPM1D (FIGS. 9E and 9F). Because many phosphorylation sites are not located on peptides that are detected by mass spectrometry, the consensus sequence was used to predict additional PPM1D targets. Known PPM1D targets, including TP53, CHEK1, CHEK2, ATM, ATR and MDM2, bear the consensus target sequence. In addition, new phosphorylation sites were identified in components of the DNA damage response pathway that are predicted targets of PPM1D based on the consensus sequence. […]

[3] = system: Molm13 PPM1D-mutant and control single cell clones; assay: Annexin V staining and flow cytometric analysis; format: cell-based, human; conditions: 3 μM of GSK2830371
Excerpt: FIG. 9E is a chart depicting the consensus sequence of PPM1D based on substrate analysis of 43 substrate candidates of PPM1D. FIG. 9F depicts 43 potential PPM1D substrate sites on pSer/Thr residues on 25 proteins. […] Only localized sites were considered. Figure discloses SEQ ID NOS 4-20 and 20-31, respectively, in order of appearance. FIG. 9G depicts a schema illustrating the components of the DNA-damage response pathway that are targeted by PPM1D in leukemia cells, based on the results from the phosphoproteomics analysis. Phospho-targets of PPM1D identified by mass spectrometry (FDR<0.1) are shown in bold. Predicted PPM1D target sites that were based on the identified consensus sequence with a glutamine at +1 and >2 acidic residues (p=3.595e-13, Fisher's exact test) are shown in italics.
as §1

[4] = target: T1, PPM1D phosphatase (Homo sapiens, UniProt O15297); conditions: Gilmartin et al. 2014; cited from earlier work
T1 sequence (O15297 1-605): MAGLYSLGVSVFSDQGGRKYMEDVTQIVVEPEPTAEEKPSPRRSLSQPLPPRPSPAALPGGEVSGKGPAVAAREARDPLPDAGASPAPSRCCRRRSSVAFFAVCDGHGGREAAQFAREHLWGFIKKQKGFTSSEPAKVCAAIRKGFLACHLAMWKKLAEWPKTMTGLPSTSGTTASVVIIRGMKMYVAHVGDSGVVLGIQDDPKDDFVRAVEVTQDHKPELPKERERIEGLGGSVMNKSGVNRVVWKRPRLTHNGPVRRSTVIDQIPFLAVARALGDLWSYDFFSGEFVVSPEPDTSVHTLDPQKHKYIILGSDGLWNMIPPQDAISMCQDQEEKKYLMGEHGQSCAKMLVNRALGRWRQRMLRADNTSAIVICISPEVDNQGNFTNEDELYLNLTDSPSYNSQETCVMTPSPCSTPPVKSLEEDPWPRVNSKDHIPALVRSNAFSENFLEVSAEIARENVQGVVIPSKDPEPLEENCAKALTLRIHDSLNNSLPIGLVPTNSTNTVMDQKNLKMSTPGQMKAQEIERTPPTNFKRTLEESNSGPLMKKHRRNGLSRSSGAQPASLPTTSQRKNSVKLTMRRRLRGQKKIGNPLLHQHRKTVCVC

[5] = system: Molm13 PPM1D-mutant and control single cell clones; assay: 72-hour cell viability analysis; format: cell-based, human
Experimental: FIG. 2B provides immunoblots of whole cell lysates from Molm13 control cells (control), PPM1D-mutant pooled clones and PPM1D frame-shift (fs) mutant single cell clones probed with anti-PPM1D and anti-Actin. […] FIG. 2D is a plot depicting viability assays in Molm13 PPM1D-mutant or control single cells clones that were treated with increasing concentrations of cyclophosphamide for 72 hours. FIG. 2E is a plot depicting viability assays in Molm13 PPM1D-mutant or control single cells clones that were treated with increasing concentrations of cisplatin for 72 hours. […] FIG. 2G is a plot depicting flow cytometric readout of competition experiment with 5% pooled Molm13 PPM1D-mutant cells and 95% pooled Molm13 control cells exposed to 350 nM Cyclophosphamide or vehicle for 24 days. FIG. 2H is a plot depicting flow cytometric readout of competition experiment with 5% pooled Molm13 PPM1D-mutant cells and 95% pooled Molm13 control cells exposed to 1 μM Cisplatin or vehicle for 24 days. […] PPM1D and control sgRNAs were identified through their fluorophores.
The line represents the locally weighted scatterplot smoothing (LOESS) of 0.1. […] FIG. 8B is a vector map of the degradation reporter vector, with different PPM1D cDNA constructs inserted. FIG. 8C is a graph showing EGFP/mCherry ratio for Molm13 cells with overexpression of wild type PPM1D, truncated PPM1D or the C-terminal end of PPM1D. FIG. 8D is a graph showing EGFP/mCherry ratio for Molm13 p53^−/− cells with overexpression of wild type PPM1D, truncated PPM1D or the C-terminal end of PPM1D. FIG. 8E is a graph showing EGFP/mCherry ratio in Molm13 cells before and after exposure to MG132 (10 μM, 6 hours), normalized to pre-treatment values. FIG. 8F is a plot showing cell viability analysis in Molm13 control cells (control), Molm13 PPM1D truncating mutant cells (PPM1D mutant) and Molm13 cells with overexpression of wild-type PPM1D (WT overexpression). […] For all experiments the following apply: *=p<0.05, **=p<0.01, ***=p<0.001,****=p<0.0001
as §1
To study the role of PPM1D mutations in chemotherapy resistance, mutations in PPM1D were induced using the CRISPR-Cas9 system. […] Using sequence verified PPM1D mutant (fs) and empty vector control Molm13 cells, the effects of mutant and wild type PPM1D in the response to DNA damaging chemotherapy were analyzed. […] (FIG. 1C).
as §2

[6] = system: Molm13 PPM1D-mutant and Molm13 control single cell clones; assay: Immunoblot of whole cell lysates for p53 Ser15 and Chk1 Ser345 phosphorylation; format: cell-based, human; conditions: Molm13 PPM1D-mutant cells, 1 hour pretreated with GSK2830371, exposed to 400 nM cytarabine

Cc1ncc(Cl)cc1NCc1ccc(C(=O)N[C@@H](CC2CCCC2)C(=O)NC2CC2)s1 [GSK2830371]
competitive advantage of PPM1D-mutant cells during cytarabine plus PPM1D inhibitor [1]: reversed the competitive advantage of PPM1D mutant cells; also recorded: could be reversed | aberrant phosphorylation pattern of PPM1D-mutant cells in response to chemotherapy [2]: reversed the aberrant PPM1D mutant phosphorylation pattern; also recorded: complete reversal of the aberrant phosphorylation pattern | sensitivity of PPM1D-mutant cells versus control cells to single agent PPM1D inhibitor, Annexin V staining [3]: increased sensitivity to single agent PPM1D inhibitor treatment when compared to control cells | selectivity for the PPM1D phosphatase [4]: highly selective for the PPM1D phosphatase | sensitivity of PPM1D-mutant cells versus control cells to single agent PPM1D inhibitor, cell viability ([5]; 72 hour, increasing doses): PPM1D mutant cells had an increased sensitivity; also recorded: increased sensitivity to single agent PPM1D inhibitor treatment when compared to control cells; also recorded: increased sensitivity to PPM1D inhibition with either compound in comparison to wild type control cells; also recorded: selectively kills PPM1D-mutant cells | sensitivity of PPM1D-mutant cells to cytarabine when combined with PPM1D inhibitor ([5]; pre-treated 1 hour with 3 μM GSK2830371, 72-hour cytarabine treatment): increased the sensitivity of Molm13 PPM1D-mutant cells to cytarabine; also recorded: reverses the chemotherapy resistance phenotype | p53 Ser15 phosphorylation with PPM1D inhibitor [6]: increased the phosphorylation of p53 | p53 Ser15 phosphorylation with PPM1D inhibitor ([6]; listed as GKS2830371): increased p53 Ser15 phosphorylation
